For data set [1], the system named is cytochrome P450 family 3 subfamily A member 4 [CYP3A4]. Particulars: cited from earlier work.
The format of data set [2] is in vivo, patients. Particulars: with crizotinib 150 mg twice daily; 3 plus 3 design.

Consider `C[C@@H](Oc1cc(-c2cnn(C3CCNCC3)c2)cnc1N)c1c(Cl)ccc(F)c1Cl` [crizotinib], for which the CYP3A4 inhibition entry in data set [1] was “moderate cytochrome P450 family 3 subfamily A member 4 [CYP3A4] inhibitor”.
With `C#Cc1cccc(Nc2ncnc3cc(OCCOC)c(OCCOC)cc23)c1` [erlotinib], in data set [2], the “maximum tolerated dose (MTD) of erlotinib in the combination” value worked out at 100 mg once daily.

The values above are taken from publication PMC7249761 (Journal of thoracic oncology : official publication of the …, 2016).
